Consider one compound from paper PMC6270165, “Synthesis and Biological Evaluation of 3-Benzisoxazolyl-4-indolylmaleimides as Potent, Selective Inhibitors of Glycogen Synthase Kinase-3β” (Molecules, 2013).

Holding throughout (type): biochemical
The target in assay [1] is T1, GSK-3β (Homo sapiens, UniProt P49841).
T1 construct: GST (N, cleaved yes); made in house; host or cells: Escherichia coli BL21-Codon Plus (DE3)
The assay is described as follows: GSK-3β kinase assay (Z'-LYTE Kinase Assay kit Ser/Thr 9 Peptide). The method, then:
(§1) GSK3β belongs to CMGC family. Here, the other family members were used to evaluate the selectivity of GSK3β inhibitors, including PKC-epsilon (AGC family), JAK2 (TK family), Braf (TKL family), DRAK2 (CAMK family) and IKKβ (other family).The recombinant GST-GSK-3βprotein was expressed in Escherichia coli strain BL21-Codon Plus (DE3), purified by GSTrap affinity chromatography, and cleaved by thrombin. The GSK-3β kinase assay was carried out with the Z´-LYTETM Kinase Assay kit Ser/Thr 9 Peptide substrate (Invitrogen, Grand, NY, USA) in 10 μL reaction volume containing 50 nM enzyme, 30 μM ATP and 2 μM substrate peptide. Drak2 Proteins were presented by professor Jiang-ping Wu (Laboratory of Immunology, Research Centre, CHUM, Notre Dame Hospital, Pavilion DeSève). The Drak2 kinase reaction was performed in a final assay volume of 3.4 μL using the ADP-GLO Kinase Assay Kit (Promega, Madison, WI, USA), according the ADP-GLO protocol and read on an EnVision plate reader. The recombinant PKC-epsilon, IKKβ, and JAK2 with N-terminal His-tag were expressed using baculovirus expression system and purified with Ni-Beads. BRAF protein was from Carna Biosciences, Inc. (Kobe Port Island, Japan). And the related kinase reactions were performed in a final assay volume of 10 μL using the related HTRF Assay Kit (Cisbio, Codolet, France). Reactions were according the HTRF protocol and read on an EnVision plate reader. All reactions were carried out in triplicate. […] Data were expressed as mean ± SE.

The target of assay [2] is T2, PKC-epsilon (Homo sapiens, UniProt Q02156).
T2 construct: His-tag (N); made in house
T2 sequence (Q02156 1-737): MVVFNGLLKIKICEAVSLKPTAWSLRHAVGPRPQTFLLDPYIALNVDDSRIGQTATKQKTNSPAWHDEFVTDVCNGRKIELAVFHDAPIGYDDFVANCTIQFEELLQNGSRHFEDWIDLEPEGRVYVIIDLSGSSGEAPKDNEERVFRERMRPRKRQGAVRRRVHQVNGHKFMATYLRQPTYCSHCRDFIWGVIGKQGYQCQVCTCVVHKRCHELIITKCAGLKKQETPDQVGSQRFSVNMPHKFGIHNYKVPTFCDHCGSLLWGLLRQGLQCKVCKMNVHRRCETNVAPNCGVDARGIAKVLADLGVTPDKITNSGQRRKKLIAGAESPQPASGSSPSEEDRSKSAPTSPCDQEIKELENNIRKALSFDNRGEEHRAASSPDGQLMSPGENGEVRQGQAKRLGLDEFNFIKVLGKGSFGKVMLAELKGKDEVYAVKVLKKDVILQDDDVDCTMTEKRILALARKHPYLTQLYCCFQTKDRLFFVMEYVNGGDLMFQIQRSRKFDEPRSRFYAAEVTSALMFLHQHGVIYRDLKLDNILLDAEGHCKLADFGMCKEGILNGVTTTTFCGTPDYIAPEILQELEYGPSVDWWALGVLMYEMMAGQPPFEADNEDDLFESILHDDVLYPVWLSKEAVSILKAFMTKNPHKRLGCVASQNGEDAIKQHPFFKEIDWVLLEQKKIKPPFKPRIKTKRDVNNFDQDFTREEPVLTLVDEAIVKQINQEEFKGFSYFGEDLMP
The assay is described as follows: PKC-epsilon kinase assay (HTRF). The conditions noted are these: read-out: PKC-epsilon inhibition% at 0.8 μg/mL (~2 μM). The method, then:
as §1

In assay [3] the target is T3, BRAF (Homo sapiens, UniProt P15056).
T3 construct: purchased Carna Biosciences, Inc
T3 sequence (P15056 whole entry): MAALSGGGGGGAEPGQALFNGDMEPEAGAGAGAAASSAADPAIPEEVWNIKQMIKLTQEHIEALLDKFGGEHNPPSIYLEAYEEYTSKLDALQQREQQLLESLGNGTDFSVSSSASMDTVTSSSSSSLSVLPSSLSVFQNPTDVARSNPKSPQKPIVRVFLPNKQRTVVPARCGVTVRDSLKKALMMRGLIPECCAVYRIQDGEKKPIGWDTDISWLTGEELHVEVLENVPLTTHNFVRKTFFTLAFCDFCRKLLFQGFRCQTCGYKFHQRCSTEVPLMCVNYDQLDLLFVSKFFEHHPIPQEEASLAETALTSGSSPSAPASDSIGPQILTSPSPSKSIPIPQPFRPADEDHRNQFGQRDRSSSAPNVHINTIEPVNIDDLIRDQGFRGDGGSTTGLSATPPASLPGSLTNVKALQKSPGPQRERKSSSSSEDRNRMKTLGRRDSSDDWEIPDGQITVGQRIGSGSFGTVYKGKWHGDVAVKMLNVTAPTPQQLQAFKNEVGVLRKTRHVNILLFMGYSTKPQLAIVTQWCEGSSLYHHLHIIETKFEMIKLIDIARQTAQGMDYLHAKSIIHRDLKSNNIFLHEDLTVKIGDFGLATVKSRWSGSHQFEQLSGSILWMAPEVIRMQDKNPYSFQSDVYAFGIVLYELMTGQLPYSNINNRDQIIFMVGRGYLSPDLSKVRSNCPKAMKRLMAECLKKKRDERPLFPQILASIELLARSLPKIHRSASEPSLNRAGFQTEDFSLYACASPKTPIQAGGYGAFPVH
The assay is described as follows: BRAF kinase assay (HTRF). The conditions noted are these: read-out: BRAF inhibition% at 0.8 μg/mL (~2 μM). The method, then: as §1

Assay [4] has as its target T4, IKK2 (Homo sapiens, UniProt O14920).
T4 construct: His-tag (N); made in house
T4 sequence (O14920 1-756): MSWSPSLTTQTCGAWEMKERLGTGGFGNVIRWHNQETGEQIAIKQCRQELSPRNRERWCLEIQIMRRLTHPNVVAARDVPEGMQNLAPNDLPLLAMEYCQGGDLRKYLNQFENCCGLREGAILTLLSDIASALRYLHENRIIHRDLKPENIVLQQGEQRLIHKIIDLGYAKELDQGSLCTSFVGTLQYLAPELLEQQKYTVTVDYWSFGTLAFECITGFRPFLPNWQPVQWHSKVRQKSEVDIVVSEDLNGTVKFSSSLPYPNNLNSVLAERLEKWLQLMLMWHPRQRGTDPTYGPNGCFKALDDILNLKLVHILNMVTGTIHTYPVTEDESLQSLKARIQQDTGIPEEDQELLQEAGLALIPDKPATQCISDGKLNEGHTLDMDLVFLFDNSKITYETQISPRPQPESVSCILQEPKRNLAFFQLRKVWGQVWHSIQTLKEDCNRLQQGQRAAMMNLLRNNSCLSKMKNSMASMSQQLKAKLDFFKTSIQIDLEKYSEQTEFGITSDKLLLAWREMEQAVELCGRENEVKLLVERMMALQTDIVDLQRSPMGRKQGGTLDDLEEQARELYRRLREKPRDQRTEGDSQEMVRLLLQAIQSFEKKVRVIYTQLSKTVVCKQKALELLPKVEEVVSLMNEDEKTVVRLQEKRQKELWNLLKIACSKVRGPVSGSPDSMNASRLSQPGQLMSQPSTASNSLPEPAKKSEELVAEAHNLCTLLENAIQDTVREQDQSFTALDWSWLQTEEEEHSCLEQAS
The experiment in a line: IKK2 (IKKβ) kinase assay (HTRF). The conditions noted are these: read-out: IKK2 inhibition% at 0.8 μg/mL (~2 μM). The method, then: as §1

Assay [5] has as its target T5, Drak2 (Homo sapiens, UniProt O94768).
T5 sequence (O94768 1-372): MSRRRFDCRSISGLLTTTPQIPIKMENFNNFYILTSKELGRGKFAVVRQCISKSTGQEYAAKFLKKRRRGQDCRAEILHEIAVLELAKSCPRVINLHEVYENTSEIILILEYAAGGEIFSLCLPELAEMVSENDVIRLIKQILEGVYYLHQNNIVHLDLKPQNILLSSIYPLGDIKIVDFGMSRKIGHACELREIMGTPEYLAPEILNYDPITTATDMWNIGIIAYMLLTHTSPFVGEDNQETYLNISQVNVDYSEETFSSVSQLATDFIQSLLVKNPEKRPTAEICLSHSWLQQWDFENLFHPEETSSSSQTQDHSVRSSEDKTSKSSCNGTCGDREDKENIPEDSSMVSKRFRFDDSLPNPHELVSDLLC
The experiment in a line: Drak2 kinase assay (ADP-GLO). The conditions noted are these: read-out: Drak2 inhibition% at 0.8 μg/mL (~2 μM). The method, then: as §1

T1 sequence (P49841 whole entry): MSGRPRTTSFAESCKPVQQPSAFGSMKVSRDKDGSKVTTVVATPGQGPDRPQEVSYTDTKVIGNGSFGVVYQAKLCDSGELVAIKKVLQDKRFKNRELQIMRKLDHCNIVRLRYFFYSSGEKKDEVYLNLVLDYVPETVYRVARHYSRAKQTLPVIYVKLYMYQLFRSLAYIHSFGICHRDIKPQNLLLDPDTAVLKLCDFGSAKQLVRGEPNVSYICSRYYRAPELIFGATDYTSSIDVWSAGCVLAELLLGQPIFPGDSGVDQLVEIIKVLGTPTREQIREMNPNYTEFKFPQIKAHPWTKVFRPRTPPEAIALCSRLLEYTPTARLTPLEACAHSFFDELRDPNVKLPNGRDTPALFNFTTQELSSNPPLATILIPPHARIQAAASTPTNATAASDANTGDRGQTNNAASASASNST

As to `O=C1NC(=O)C(c2cn(CCCN3CCOCC3)c3ccc(Br)cc23)=C1c1noc2ccccc12` [7c, 3-(Benzo[d]isoxazol-3-yl)-4-(5-bromo-1-(3-morpholinopropyl)-1H-indol-3-yl)-1H-pyrrole-2,5-dione], the IC50 in assay [1] (50 nM enzyme, 30 μM ATP, 2 μM substrate peptide, triplicate, mean ± SE, read-out: GSK-3β inhibitory activity IC50 (nM) ± SE) was found to be 10.2 ± 5.9 nM. Moreover, the “GSK-3β inhibitory activity, fold increase as compared to 7h” value in assay [1] (ratio of IC50 values, versus 7h) stood at 14 fold. In addition, the “Selectivity for GSK-3β over other tested kinases” value in assay [1] (versus PKC-epsilon, JAK2, BRAF, IKK2 and Drak2) is “high selectivity”. Further, the inhibition at 2 µM worked out at 12.1% in assay [2], 3.4% in assay [3], 13.1% in assay [4] and 1.67% in assay [5].
